Assay results reported in US20060147516A1, “Taste masking system for alprazolam” (CIMA LABS INC., priority 2005, published 2006).

Assay: Solubility of alprazolam in ethanol (coating solvent)
Assay type: physicochemical
Conditions: at working concentrations in ethanol
Procedure: The resulting particles were discreet, non-tacky and exceptionally workable. By working with various materials, and without wishing to be bound by a particular theory, it was determined that certain drugs react and/or interact with the polymer materials in the taste masking coating material, changing their individual characters rendering the material more tacky. The present invention intends to encompass only those active pharmaceutical ingredients that would not so adversely affect workability so as to prevent their effective use in forming discrete, preferably free flowing, well coated, well characterized solid supports, which may be further coated. Active pharmaceutical ingredients that may be used in addition to alprazolam in accordance with the present invention may include, without limitation, analgesics, anti-inflammatories, antipyretics, antibiotics, antimicrobials, anxiolytics, laxatives, anorexics, antihistamines, antidepressants, antiasthmatics, antidiuretics, antiflatuents, antimigraine agents, antispasmodics, sedatives, antihyperactives, antihypertensives, tranquilizers, decongestants, beta blockers, peptides, proteins, oligonucleotides and other substances of biological origin, and combinations thereof. Also contemplated are the drugs and pharmaceutically active ingredients described in Mantelle, U.S. Pat. No. 5,234,957, in columns 18 through 21. […]

For `Cc1nnc2n1-c1ccc(Cl)cc1C(c1ccccc1)=NC2` [alprazolam], the solubility in ethanol was “sparingly soluble”.
